Measurements from patent US20250072433A1, “ORGANIC CONCENTRATED VITAMINE-PHYTOHORMONE WITH NATURAL BIO-STIMULANT PROPERTIES AS FERTILIZER CONCENTRATED EXTRACT OF DUCKWEED ARACEA FAMILY OF PLANTS FORMALY KNOWN AS LEMNACEAE SINGLE OR COMBINED SPECIES THAT CAN INCLUDE ALSO COMPOUNDED MULTIPLE FORMULATED AQUATIC PLANTS EXTRACTS TO NATURALY …” (priority 2021, published 2025).
“Also recorded” adds a separate entry of the source.

Tested on: mung bean hypocotyl cuttings
Experiment: Comparative mung bean bioassay: rooting response of stem cuttings versus seaweed products and IAA/IBA standards (Example 6)
Format: in vivo
Conditions: for pH: 30 mg/L; for stem growth, length: 1% dilution; for concentration with the higher number of roots developed: range 0 to 30 mg/L
Text: A composition comparative study further embodiment described in detail in Example 6. to determine the concertation of Auxins in relation to Standard indole-3-Butiric acid (IBA) and indole-3-acetic (IAA) embodied in the examples Duckweed Biotech product is a combination of three aquatic plants of the Aracea family, which is compared with commercial seaweed products: Product (1) “K” and Product (2) “M”. The dilutions were made from the liquid concentrated products and the Duckweed Biotech from a natural concentrate extraction of three duckweed species. The equivalent phytohormone activity of IAA and IBA was established by the number of roots to the corresponding treatment dilution and interpolating the number of roots to the corresponding hormone concentration to obtain the total activity in mg/L of the commercial product.
Two commercial giant brown kelp seaweed products, Product (1) “K” made of Ecklonia maxima and Product (2) “M” made of Ascophyllum nodosum were compared with the Duckweed Biotech Product “D” made of a combination of Duckweed aquatic plants of the Araceae family of plants formally known as Lemnaceae family of plants. For the test, a series of dilutions from 0% to 50% were made from the concentrated commercial products.
The preparation of standards was performed using a concentration range of 0, 1, 2, 5, 10, 15, 20 and 30 mg/L of indole-3-butyric acid (IBA) and indole-3-acetic acid (IAA) as shown in Table 20. A dose growth response curve for rooting ability was produced using these auxins.
The mung bean bioassay was used to evaluate plant growth and rooting stimulation response of three products: Duckweed Biotech Product “D”, Product (1) “K” and Product (2) “M”.
The seeds of mung bean seeds were rinse thoroughly with water and soak for […]. in DI water. 2. The seeds were planted in microgreen trays for germination process at 26° C. After 8 days, uniform hypocotyl cuttings with 8 cm length with 2 primary leaves and without cotyledon were transferred to the treatment vials. The cuttings are rinsed with DI water and then soak in 20 mL treatment test solutions for 8 hr. The treatment solutions include Duckweed Biotech Product “D”, Product (1) “K”, Product (2) “M”, indole-3-acetic acid (IAA), and indole-3-butyric acid (IBA). The treatments are follows: • IBA & IAA concentrations: 0, 1, 2, 5, 10, 15, 20 and 30 mg/L • Duckweed Biotech Product “D” Conc.: 0, 0.5, 1, 2, 5, 10, 20 and 50% • Product (1) “K” Conc.: 0, 0.5, 1, 2, 5, 10, 20 and 50% • Product (2) “M” Conc.: 0, 0.5, 1, 2, 5, 10, 20 and 50%
3 After the treatments, the seedling base cuttings were rinsed with DI water and transferred to clean vials with glass beads containing 60 mL of DI water for 8 days. Two cuttings were placed in each vial and two vials were used for each treatment. The vials are left at 28±3° C. ambient air temperature and under lighting at 135 μmol photons m^−2 s^−1 in a 16-h day/8-h night cycle. The humidity is maintained over 60%.
4. After 8 days, the number of roots per hypocotyl was recorded. The plant quality and stem length were also evaluated. The data collected was organized and analyzed using Microsoft Excel
The plant growth and rooting response of each treatment were recorded after 8 days. The rooting response was evaluated based on number of roots developed per cutting. The average number of roots of three cuttings per treatment was used to determine the effectiveness of the treatments. Plant quality and stem length were also recorded. […] The plants with higher rooting response were found at 2% with duckweed treatment with 67 roots. Whereas Product (1) “K” at 20% dilution stimulated root production with 46 roots and Product (2) “M” at 2% dilution with 32 roots. A decline of rooting stimulation was found at 50% dilution for all evaluated products (FIG. 35 & FIG. 36) that coincides with previous research literature for brown kelp extract products. […]

pH	Structure (SMILES)	stem growth, length [cm]	concentration with the higher number of roots developed [mg/L]	root formation, IBA compared with IAA (in vivo)
6.92	O=C(O)Cc1c[nH]c2ccccc12 [IAA, indole-3-acetic acid]	15	30	–
6.53	O=C(O)CCCc1c[nH]c2ccccc12 [IBA, indole-3-butyric acid]	15	30	stimulated more roots in all concentrated treatments than IAA; also recorded: more effective than indol-3-acetic acid (IAA) in root development
